# US7396837B2, “Antitumoral analogs of lamellarins” (Pharma Mar, S.A.U., priority 2002, dated 2008)
# Like-named read-outs stand apart in the source and are kept apart here.
# How the values were obtained:
# Assay type in all cases: cell-based
# IGROV-ET = assay: SRB colorimetric cell growth inhibition assay, IGROV-ET (ET-743 resistant); conditions: Homo sapiens; for GI50 / IC (TGI): IGROV-ET; for GI50: GI=growth inhibition, read-out: GI50 IGROV-ET; for IC (TGI): total growth inhibition (cytostatic effect), read-out: TGI IGROV-ET; for CC50: read-out: LC50 IGROV-ET, IGROV-ET, cell killing (cytotoxic effect)
# Method in brief: (§1)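 Quantitation uses the sulforhodamine B reaction on cells exposed to sample for the whole assay period; results (mean ± SD, n = 3 wells) yield GI, TGI and LC.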
# SK-MEL-28 = assay: SRB colorimetric cell growth inhibition assay, SK-MEL-28; conditions: for IC (TGI): SK-MEL-28, MEL-28, total growth inhibition (cytostatic effect), read-out: TGI MEL-28; for GI50: MEL-28, GI=growth inhibition, read-out: GI50 MEL-28
# Method in brief: as §1
# SKOV-3 = assay: SRB colorimetric cell growth inhibition assay, SKOV-3; conditions: Homo sapiens; for GI50: SK-OV-3, SKOV-3, GI=growth inhibition, read-out: GI50 SKOV-3; for LC50 (concentration causing 50% net cell killing): SK-OV-3, read-out: LC50 SKOV-3; for IC (TGI): SK-OV-3, SKOV-3, total growth inhibition (cytostatic effect), read-out: TGI SKOV-3
# Method in brief: (§2)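 Growth inhibition (GI), total growth inhibition (TGI, cytostatic) and lethal concentration (LC, cytotoxic) come from an SRB-based colorimetric measure of growth and viability. Data are triplicate-well means ± SD.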
# SK-BR-3 = assay: SRB colorimetric cell growth inhibition assay, SK-BR-3; conditions: for IC (TGI) / CC50: Homo sapiens; for IC (TGI): SK-BR-3, SK-BR-3, total growth inhibition (cytostatic effect), read-out: TGI SK-BR-3; for CC50: SK-BR-3, read-out: LC50 SK-BR-3, SK-BR-3, cell killing (cytotoxic effect); for GI50: SK-BR-3, GI=growth inhibition, read-out: GI50 SK-BR-3
# Method in brief: as §1
# H-MEC-1 = assay: SRB colorimetric cell growth inhibition assay, H-MEC-1; conditions: Homo sapiens, HMEC-1, H-MEC-1; for GI50: GI=growth inhibition, read-out: GI50 H-MEC-1; for IC (TGI): total growth inhibition (cytostatic effect), read-out: TGI H-MEC-1
# Method in brief: as §2
# [1] = as above; conditions: human
# Method in brief: as §2
# PANC-1 = assay: SRB colorimetric cell growth inhibition assay, PANC-1; conditions: for IC (TGI): TGI=total growth inhibition (cytostatic effect), read-out: TGI PANC-1; for CC50: PANC-1, read-out: LC50 PANC-1, PANC-1, LC=cell killing (cytotoxic effect); for GI50: GI=growth inhibition, read-out: GI50 PANC-1
# Method in brief: as §1
# LoVo = assay: SRB colorimetric cell growth inhibition assay, LoVo; conditions: Homo sapiens, LoVo; for CC50: read-out: LC50 LOVO, LOVO, LC=cell killing (cytotoxic effect); for GI50: GI=growth inhibition, read-out: GI50 LOVO; for IC (TGI): TGI=total growth inhibition (cytostatic effect), read-out: TGI LOVO
# Method in brief: as §1
# K-562 = assay: SRB colorimetric cell growth inhibition assay, K-562; conditions: for GI50: GI=growth inhibition, read-out: GI50 K-562; for IC (TGI): TGI=total growth inhibition (cytostatic effect), read-out: TGI K-562; for CC50: K562, read-out: LC50 K-562, K-562, LC=cell killing (cytotoxic effect)
# Method in brief: as §1
# IGROV = assay: SRB colorimetric cell growth inhibition assay, IGROV; conditions: for GI50: GI=growth inhibition, read-out: GI50 IGROV
# Method in brief: as §1
# A-549 = assay: SRB colorimetric cell growth inhibition assay, A-549; conditions: for GI50: GI=growth inhibition, read-out: GI50 A-549; for IC (TGI): TGI=total growth inhibition (cytostatic effect), read-out: TGI A-549; for CC50: A549, read-out: LC50 A-549, A-549, LC=cell killing (cytotoxic effect)
# Method in brief: as §1
# LoVo-Dox = assay: SRB colorimetric cell growth inhibition assay, LoVo-Dox (MDR); conditions: Homo sapiens; for GI50 / IC (TGI): LOVO-DOX; for GI50: GI=growth inhibition, read-out: GI50 LOVO-DOX; for IC (TGI): TGI=total growth inhibition (cytostatic effect), read-out: TGI LOVO-DOX; for CC50: read-out: LC50 LOVO-DOX, LOVO-DOX, LC=cell killing (cytotoxic effect)
# Method in brief: as §1
# HT-29 = assay: SRB colorimetric cell growth inhibition assay, HT-29; conditions: for GI50: HT-29, GI=growth inhibition, read-out: GI50 HT-29; for IC (TGI) / CC50: Homo sapiens; for IC (TGI): HT-29, HT-29, TGI=total growth inhibition (cytostatic effect), read-out: TGI HT-29; for CC50: HT-29, read-out: LC50 HT-29, HT-29, LC=cell killing (cytotoxic effect)
# Method in brief: as §1
# DU-145 = assay: SRB colorimetric cell growth inhibition assay, DU-145; conditions: for TGI DU-145: total growth inhibition (cytostatic effect); for GI50: GI=growth inhibition, read-out: GI50 DU-145
# Method in brief: as §1
# LNCaP = assay: SRB colorimetric cell growth inhibition assay, LNCaP; conditions: Homo sapiens, LNCaP; for GI50 / IC (TGI): LN-caP; for GI50: GI=growth inhibition, read-out: GI50 LN-caP; for IC (TGI): total growth inhibition (cytostatic effect), read-out: TGI LN-caP; for CC50: read-out: LC50 LN-caP, LN-caP, cell killing (cytotoxic effect)
# Method in brief: as §1
structure (smiles),measurement,setting,value
COc1cc(-c2c3c4cc(OC)c(OC(=O)[C@@H](N)C(C)C)cc4oc(=O)c3n3ccc4c(OC(=O)[C@@H](N)C(C)C)c(OC)c(OC)cc4c23)ccc1OC(=O)[C@@H](N)C(C)C [Compound 35],GI50,IGROV-ET,0.192 µM
same,IC (TGI),IGROV-ET,0.855 µM
same,CC50,IGROV-ET,5.45 µM
same,IC (TGI),SK-MEL-28; Homo sapiens,0.915 µM
same,GI50,SK-MEL-28,0.0546 µM
same,CC50,SK-MEL-28; human,2.77 µM
same,GI50,SKOV-3,0.113 µM
same,LC50 (concentration causing 50% net cell killing),SKOV-3,3.83 µM
same,IC (TGI),SKOV-3,0.932 µM
same,IC (TGI),SK-BR-3,0.689 µM
same,CC50,SK-BR-3,4.03 µM
same,GI50,SK-BR-3,0.228 µM
same,GI50,H-MEC-1,0.0197 µM
same,IC (TGI),H-MEC-1,0.0403 µM
same,LC50 (concentration giving 50% net cell killing),[1],0.0826 µM
same,IC (TGI),"PANC-1; Homo sapiens, PANC-1, PANC-1",1.21 µM
same,CC50,PANC-1; Homo sapiens,3.67 µM
same,GI50,PANC-1; PANC-1,0.178 µM
same,CC50,LoVo,2.6 µM
same,GI50,LoVo,0.207 µM
same,IC (TGI),LoVo,0.705 µM
same,GI50,"K-562; Homo sapiens, K562, K-562",0.0808 µM
same,IC (TGI),"K-562; Homo sapiens, K562, K-562",0.975 µM
same,CC50,K-562; Homo sapiens,4.82 µM
same,GI50,"IGROV; Homo sapiens, IGROV",0.152 µM
same,IC (TGI),"IGROV; Homo sapiens, IGROV, total growth inhibition (cytostatic effect), read-out: TGI IGROV",0.907 µM
same,CC50,IGROV; human,4.05 µM
same,GI50,A-549; A-549,0.0524 µM
same,IC (TGI),"A-549; Homo sapiens, A549, A-549",0.259 µM
same,CC50,A-549; Homo sapiens,6.09 µM
same,GI50,LoVo-Dox,0.217 µM
same,IC (TGI),LoVo-Dox,0.737 µM
same,CC50,LoVo-Dox,2.8 µM
same,GI50,HT-29,1.18 µM
same,IC (TGI),HT-29,2.44 µM
same,CC50,HT-29,5.06 µM
same,TGI DU-145,DU-145; DU-145,8.81E−08 Molar
same,GI50,"DU-145; Homo sapiens, DU-145, DU-145",0.0321 µM
same,CC50,DU-145; human,0.576 µM
same,GI50,LNCaP,0.0881 µM
same,IC (TGI),LNCaP,0.468 µM
same,CC50,LNCaP,2.22 µM
COc1cc(-c2c3n(c4c(=O)oc5cc(OC(=O)[C@@H](N)C(C)C)c(OC)cc5c24)CCc2cc(OC(=O)[C@@H](N)C(C)C)c(OC)cc2-3)ccc1OC(=O)[C@@H](N)C(C)C [Compound 37],GI50,IGROV-ET,0.359 µM
same,IC (TGI),IGROV-ET,2.11 µM
same,CC50,IGROV-ET,8.04 µM
same,IC (TGI),SK-MEL-28; Homo sapiens,2.68 µM
same,CC50,"SK-MEL-28; Homo sapiens, SK-MEL-28, read-out: LC50 MEL-28, MEL-28, cell killing (cytotoxic effect)",7.95 µM
same,GI50,SK-MEL-28,0.623 µM
same,GI50,SKOV-3,1.62 µM
same,LC50 (concentration causing 50% net cell killing),SKOV-3,7.87 µM
same,IC (TGI),SKOV-3,3.58 µM
same,IC (TGI),SK-BR-3,2.12 µM
same,CC50,SK-BR-3,10.6 µM
same,GI50,SK-BR-3,0.0576 µM
same,GI50,H-MEC-1,0.0974 µM
same,IC (TGI),H-MEC-1,1.26 µM
same,LC50 (concentration giving 50% net cell killing),[1],4.73 µM
same,GI50,"PANC-1; Homo sapiens, PANC-1, PANC-1",2.15 µM
same,IC (TGI),"PANC-1; Homo sapiens, PANC-1, PANC-1",11 µM
same,CC50,PANC-1; Homo sapiens,11 µM
same,CC50,LoVo,10.8 µM
same,GI50,LoVo,1.79 µM
same,IC (TGI),LoVo,4.4 µM
same,IC (TGI),"K-562; Homo sapiens, K562, K-562",1.97 µM
same,CC50,K-562; Homo sapiens,7.53 µM
same,GI50,K-562; K-562,0.0124 µM
same,CC50,"IGROV; Homo sapiens, IGROV, read-out: LC50 IGROV, IGROV, cell killing (cytotoxic effect)",5.89 µM
same,GI50,IGROV; IGROV,0.577 µM
same,TGI IGROV,"IGROV; IGROV, total growth inhibition (cytostatic effect)",2.17E−06 Molar
same,GI50,"A-549; Homo sapiens, A549, A-549",1.72 µM
same,IC (TGI),"A-549; Homo sapiens, A549, A-549",3.8 µM
same,CC50,A-549; Homo sapiens,8.38 µM
same,GI50,LoVo-Dox,2.1 µM
same,IC (TGI),LoVo-Dox,4.6 µM
same,CC50,LoVo-Dox,10.1 µM
same,GI50,HT-29,0.0912 µM
same,IC (TGI),HT-29,2 µM
same,CC50,HT-29,10.9 µM
same,GI50,DU-145; DU-145,0.0677 µM
same,TGI DU-145,DU-145; DU-145,1.55E−06 Molar
same,CC50,"DU-145; Homo sapiens, DU-145, read-out: LC50 DU-145, DU-145, cell killing (cytotoxic effect)",5.62 µM
same,GI50,LNCaP,0.593 µM
same,IC (TGI),LNCaP,2.18 µM
same,CC50,LNCaP,5.05 µM
